According to ChEMBL document CHEMBL1138151, “Design and synthesis of promiscuous high-affinity monoamine transporter ligands: unraveling transporter selectivity” (J Med Chem, 2006):

Columns and labels:
[1] = biological target: T1, Sodium-dependent dopamine transporter (Homo sapiens, UniProt Q01959); assay: Displacement of [125I]RTI-55 from DAT
[2] = Selectivity for NET over DAT; format: protein assay; conditions: Homo sapiens
[3] = biological target: T2, Sodium-dependent serotonin transporter (Homo sapiens, UniProt P31645); assay: Displacement of [125I]RTI-55 from SERT
[4] = biological target: T3, Sodium-dependent noradrenaline transporter (Homo sapiens, UniProt P23975); assay: Inhibition of [3H]NE uptake
[5] = biological target: T1, Sodium-dependent dopamine transporter; assay: Inhibition of [3H]DA uptake
[6] = biological target: T3, Sodium-dependent noradrenaline transporter; assay: Displacement of [3H]nisoxetine from NET
[7] = biological target: T2, Sodium-dependent serotonin transporter; assay: Inhibition of [3H]5-HT uptake
[8] = biological target: Monoamine transporters; Norepinephrine & dopamine (Homo sapiens) (UniProt Q01959+P23975); assay: Ratio for uptake of NE over DA; format: protein assay
[9] = biological target: T4, Monoamine transporters; serotonin & dopamine (Homo sapiens) (UniProt P31645+Q01959); assay: Selectivity for SERT over DAT; format: protein assay
[10] = biological target: T4, Monoamine transporters; serotonin & dopamine (Homo sapiens); assay: Ratio for uptake of 5HT over DA; format: protein assay

T3 sequence (P23975 whole entry): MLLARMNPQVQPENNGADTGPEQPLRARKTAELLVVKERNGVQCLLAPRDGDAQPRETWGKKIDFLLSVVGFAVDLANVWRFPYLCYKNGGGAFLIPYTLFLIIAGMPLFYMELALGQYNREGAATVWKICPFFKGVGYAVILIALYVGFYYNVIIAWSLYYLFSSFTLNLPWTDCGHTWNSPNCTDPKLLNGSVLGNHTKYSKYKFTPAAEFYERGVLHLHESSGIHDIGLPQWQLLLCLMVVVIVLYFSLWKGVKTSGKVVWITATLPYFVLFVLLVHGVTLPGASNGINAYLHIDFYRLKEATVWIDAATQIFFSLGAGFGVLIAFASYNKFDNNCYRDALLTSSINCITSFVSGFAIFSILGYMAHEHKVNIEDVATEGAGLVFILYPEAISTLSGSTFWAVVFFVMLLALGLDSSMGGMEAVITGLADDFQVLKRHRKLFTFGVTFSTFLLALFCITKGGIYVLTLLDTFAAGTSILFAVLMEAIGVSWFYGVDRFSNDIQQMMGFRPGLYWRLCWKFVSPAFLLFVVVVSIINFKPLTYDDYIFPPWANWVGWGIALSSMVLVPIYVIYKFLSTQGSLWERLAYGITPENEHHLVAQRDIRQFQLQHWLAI
Sequence of Monoamine transporters; Norepinephrine & dopamine (Homo sapiens) (P23975 whole entry, looked up): as the sequence (P23975 whole entry) above
Sequence of Monoamine transporters; Norepinephrine & dopamine (Homo sapiens) (Q01959 whole entry, looked up): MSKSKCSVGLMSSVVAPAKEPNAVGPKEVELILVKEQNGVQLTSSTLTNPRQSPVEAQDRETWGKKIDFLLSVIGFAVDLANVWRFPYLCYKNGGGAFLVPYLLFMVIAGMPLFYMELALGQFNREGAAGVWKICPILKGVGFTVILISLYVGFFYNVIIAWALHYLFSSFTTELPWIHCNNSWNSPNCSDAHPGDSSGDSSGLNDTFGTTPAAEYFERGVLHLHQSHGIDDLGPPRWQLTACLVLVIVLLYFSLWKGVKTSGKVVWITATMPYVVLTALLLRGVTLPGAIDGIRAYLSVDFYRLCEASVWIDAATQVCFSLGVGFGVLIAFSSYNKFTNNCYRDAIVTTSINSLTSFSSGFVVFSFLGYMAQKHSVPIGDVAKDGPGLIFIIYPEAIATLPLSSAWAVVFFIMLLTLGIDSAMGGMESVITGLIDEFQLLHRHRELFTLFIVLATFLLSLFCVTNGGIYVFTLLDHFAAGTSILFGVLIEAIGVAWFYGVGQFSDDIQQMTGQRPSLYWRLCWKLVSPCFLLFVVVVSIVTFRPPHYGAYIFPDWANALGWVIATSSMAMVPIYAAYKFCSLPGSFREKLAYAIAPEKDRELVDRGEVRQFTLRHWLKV
T1 sequence (Q01959 whole entry): as the sequence (Q01959 whole entry, looked up) above
T2 sequence (P31645 whole entry): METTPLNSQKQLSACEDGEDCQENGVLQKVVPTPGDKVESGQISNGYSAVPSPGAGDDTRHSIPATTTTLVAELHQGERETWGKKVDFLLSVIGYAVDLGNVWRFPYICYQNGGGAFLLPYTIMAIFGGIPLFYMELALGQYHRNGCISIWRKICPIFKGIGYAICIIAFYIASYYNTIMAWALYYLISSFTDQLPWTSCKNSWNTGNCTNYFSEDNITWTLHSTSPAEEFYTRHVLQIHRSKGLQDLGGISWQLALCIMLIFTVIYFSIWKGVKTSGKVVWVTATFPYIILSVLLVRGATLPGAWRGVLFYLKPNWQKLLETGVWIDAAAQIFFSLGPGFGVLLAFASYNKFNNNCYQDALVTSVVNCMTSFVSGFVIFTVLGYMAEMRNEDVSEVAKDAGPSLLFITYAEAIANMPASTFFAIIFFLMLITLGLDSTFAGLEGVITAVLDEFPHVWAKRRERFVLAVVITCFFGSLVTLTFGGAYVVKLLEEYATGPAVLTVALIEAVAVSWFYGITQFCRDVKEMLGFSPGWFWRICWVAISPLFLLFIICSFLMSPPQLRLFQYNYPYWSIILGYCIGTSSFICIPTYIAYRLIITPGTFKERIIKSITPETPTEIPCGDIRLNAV
T4 sequence (P31645 whole entry, looked up): as the sequence (P31645 whole entry) above
T4 sequence (Q01959 whole entry, looked up): as the sequence (Q01959 whole entry, looked up) above

Compound | Ki [1] | Ratio Ki [2] | Ki [3] | Ki [4] | Ki [5] | Ki [6] | Ki [7] | Ratio Ki [8] | Ratio Ki [9] | Ratio Ki [10]
N[C@H](Cc1ccccc1)CN1CCC(CCOC(c2ccc(F)cc2)c2ccc(F)cc2)CC1 | 12 nM | 78 | 68 nM | 402 nM | 17 nM | 941 nM | 229 nM | 24 | 6 | 13
O[C@@H](Cc1ccccc1)CN1CCC(CCOC(c2ccc(F)cc2)c2ccc(F)cc2)CC1 | 0.4 nM | 902 | 82 nM |  |  | 361 nM |  |  | 205 | 
O[C@H](CCN1CCC(CCOC(c2ccc(F)cc2)c2ccc(F)cc2)CC1)c1ccccc1 | 0.8 nM | 394 | 43 nM |  |  | 330 nM |  |  | 51 | 
O[C@@H](Cc1ccccc1)CN1CCC(CCOC(c2ccccc2)c2ccccc2)CC1 | 1.4 nM | 359 | 450 nM |  |  | 485 nM |  |  | 332 | 
O[C@@H](CCc1ccccc1)CN1CCC(CCOC(c2ccc(F)cc2)c2ccc(F)cc2)CC1 | 1.6 nM | 457 | 38 nM |  |  | 736 nM |  |  | 24 | 
O[C@@H](CCN1CCC(CCOC(c2ccc(F)cc2)c2ccc(F)cc2)CC1)c1ccccc1 | 0.9 nM | 515 | 22 nM |  |  | 440 nM |  |  | 26 | 
C[C@@H](Cc1ccccc1)CN1CCC(CCOC(c2ccc(F)cc2)c2ccc(F)cc2)CC1 | 8 nM | 47 | 100 nM | 160 nM | 3.8 nM | 380 nM | 124 nM | 42 | 13 | 33
Fc1ccc(C(OCCC2CCN(C[C@H]3C[C@@H]3c3ccccc3)CC2)c2ccc(F)cc2)cc1 | 1.4 nM | 256 | 136 nM |  |  | 359 nM |  |  | 97 | 
O[C@H](Cc1ccccc1)CN1CCC(CCOC(c2ccccc2)c2ccccc2)CC1 | 6.9 nM | 114 | 286 nM |  |  | 785 nM |  |  | 42 | 
C[C@H](Cc1ccccc1)CN1CCC(CCOC(c2ccc(F)cc2)c2ccc(F)cc2)CC1 | 0.9 nM | 118 | 53 nM |  |  | 103 nM |  |  | 61 | 
O[C@H](CCc1ccccc1)CN1CCC(CCOC(c2ccc(F)cc2)c2ccc(F)cc2)CC1 | 2.1 nM | 215 | 13 nM | 79 nM | 1.4 nM | 460 nM | 19 nM | 56 | 6 | 14
C[C@H](CCN1CCC(CCOC(c2ccc(F)cc2)c2ccc(F)cc2)CC1)c1ccccc1 | 2.2 nM | 253 | 58 nM |  |  | 560 nM |  |  | 26 | 
Fc1ccc(C(OCCC2CCN(CC3=Cc4ccccc4CC3)CC2)c2ccc(F)cc2)cc1 | 1.1 nM | 40 | 127 nM |  |  | 43 nM |  |  | 118 | 
Fc1ccc(C(OCCC2CCN(C[C@@H]3C[C@H]3c3ccccc3)CC2)c2ccc(F)cc2)cc1 | 0.5 nM | 1890 | 16 nM |  |  | 947 nM |  |  | 32 | 
O[C@@H](CCN1CCC(CCOC(c2ccccc2)c2ccccc2)CC1)c1ccccc1 | 2.1 nM | 101 | 230 nM |  |  | 210 nM |  |  | 107 | 
C[C@@H](CCN1CCC(CCOC(c2ccc(F)cc2)c2ccc(F)cc2)CC1)c1ccccc1 | 1.3 nM | 259 | 30 nM | 40 nM | 2.1 nM | 340 nM | 75 nM | 19 | 22 | 36
N[C@@H](Cc1ccccc1)CN1CCC(CCOC(c2ccc(F)cc2)c2ccc(F)cc2)CC1 | 6.3 nM | 135 | 76 nM | 338 nM | 13 nM | 851 nM | 228 nM | 26 | 12 | 18
O[C@H](Cc1ccccc1)CN1CCC(CCOC(c2ccc(F)cc2)c2ccc(F)cc2)CC1 | 5.1 nM | 240 | 91 nM | 143 nM | 1.7 nM | 1220 nM | 41 nM | 84 | 18 | 24
O[C@H](CCN1CCC(CCOC(c2ccccc2)c2ccccc2)CC1)c1ccccc1 | 1.8 nM | > 3200 | 280 nM |  |  | > 5600 nM |  |  | 158 | 
